Reference: BigSolDB 2.1

Compound: CC[C@@H](C(N)=O)N1CCCC1=O
- solubility (mole fraction) (in 1,4-dioxane, 288.15 K): 0.00718
- solubility (mole fraction) (in 1,4-dioxane, 293.15 K): 0.00902
- solubility (mole fraction) (in 1,4-dioxane, 298.15 K): 0.0112
- solubility (mole fraction) (in 1,4-dioxane, 303.15 K): 0.014
- solubility (mole fraction) (in 1,4-dioxane, 308.15 K): 0.0173
- solubility (mole fraction) (in 1,4-dioxane, 313.15 K): 0.0214
- solubility (mole fraction) (in 1,4-dioxane, 318.15 K): 0.0263
- solubility (mole fraction) (in 1,4-dioxane, 323.15 K): 0.0322
- solubility (mole fraction) (in acetone, 283.15 K): 0.00698
- solubility (mole fraction) (in acetone, 288.15 K): 0.00887
- solubility (mole fraction) (in acetone, 293.15 K): 0.0111
- solubility (mole fraction) (in acetone, 298.15 K): 0.014
- solubility (mole fraction) (in acetone, 303.15 K): 0.0175
- solubility (mole fraction) (in acetone, 308.15 K): 0.0217
- solubility (mole fraction) (in acetone, 313.15 K): 0.0268
- solubility (mole fraction) (in acetone, 318.15 K): 0.033
- solubility (mole fraction) (in acetone, 323.15 K): 0.0405
- solubility (mole fraction) (in acetonitrile, 283.15 K): 0.00909
- solubility (mole fraction) (in acetonitrile, 288.15 K): 0.0113
- solubility (mole fraction) (in acetonitrile, 293.15 K): 0.0137
- solubility (mole fraction) (in acetonitrile, 298.15 K): 0.0168
- solubility (mole fraction) (in acetonitrile, 303.15 K): 0.0203
- solubility (mole fraction) (in acetonitrile, 308.15 K): 0.0245
- solubility (mole fraction) (in acetonitrile, 313.15 K): 0.0292
- solubility (mole fraction) (in acetonitrile, 318.15 K): 0.035
- solubility (mole fraction) (in acetonitrile, 323.15 K): 0.0416
- solubility (mole fraction) (in cyclohexane, 283.15 K): 1.37e-05
- solubility (mole fraction) (in cyclohexane, 288.15 K): 1.92e-05
- solubility (mole fraction) (in cyclohexane, 293.15 K): 2.61e-05
- solubility (mole fraction) (in cyclohexane, 298.15 K): 3.64e-05
- solubility (mole fraction) (in cyclohexane, 303.15 K): 4.91e-05
- solubility (mole fraction) (in cyclohexane, 308.15 K): 6.61e-05
- solubility (mole fraction) (in cyclohexane, 313.15 K): 8.95e-05
- solubility (mole fraction) (in cyclohexane, 318.15 K): 0.00012
- solubility (mole fraction) (in cyclohexane, 323.15 K): 0.00016
- solubility (mole fraction) (in ethanol, 283.15 K): 0.0384
- solubility (mole fraction) (in ethanol, 288.15 K): 0.0459
- solubility (mole fraction) (in ethanol, 293.15 K): 0.0546
- solubility (mole fraction) (in ethanol, 298.15 K): 0.0643
- solubility (mole fraction) (in ethanol, 303.15 K): 0.0758
- solubility (mole fraction) (in ethanol, 308.15 K): 0.0885
- solubility (mole fraction) (in ethanol, 313.15 K): 0.103
- solubility (mole fraction) (in ethanol, 318.15 K): 0.12
- solubility (mole fraction) (in ethanol, 323.15 K): 0.138
- solubility (mole fraction) (in ethyl acetate, 283.15 K): 0.00424
- solubility (mole fraction) (in ethyl acetate, 288.15 K): 0.00539
- solubility (mole fraction) (in ethyl acetate, 293.15 K): 0.00676
- solubility (mole fraction) (in ethyl acetate, 298.15 K): 0.00847
- solubility (mole fraction) (in ethyl acetate, 303.15 K): 0.0104
- solubility (mole fraction) (in ethyl acetate, 308.15 K): 0.0129
- solubility (mole fraction) (in ethyl acetate, 313.15 K): 0.0158
- solubility (mole fraction) (in ethyl acetate, 318.15 K): 0.0194
- solubility (mole fraction) (in ethyl acetate, 323.15 K): 0.0236
- solubility (mole fraction) (in isopropanol, 283.15 K): 0.0115
- solubility (mole fraction) (in isopropanol, 288.15 K): 0.0147
- solubility (mole fraction) (in isopropanol, 293.15 K): 0.0185
- solubility (mole fraction) (in isopropanol, 298.15 K): 0.0229
- solubility (mole fraction) (in isopropanol, 303.15 K): 0.0286
- solubility (mole fraction) (in isopropanol, 308.15 K): 0.0354
- solubility (mole fraction) (in isopropanol, 313.15 K): 0.0435
- solubility (mole fraction) (in isopropanol, 318.15 K): 0.0537
- solubility (mole fraction) (in isopropanol, 323.15 K): 0.0663
- solubility (mole fraction) (in methanol, 283.15 K): 0.0814
- solubility (mole fraction) (in methanol, 288.15 K): 0.0974
- solubility (mole fraction) (in methanol, 293.15 K): 0.115
- solubility (mole fraction) (in methanol, 298.15 K): 0.136
- solubility (mole fraction) (in methanol, 303.15 K): 0.158
- solubility (mole fraction) (in methanol, 308.15 K): 0.182
- solubility (mole fraction) (in methanol, 313.15 K): 0.209
- solubility (mole fraction) (in methanol, 318.15 K): 0.239
- solubility (mole fraction) (in methanol, 323.15 K): 0.27
- solubility (mole fraction) (in n-propanol, 283.15 K): 0.0167
- solubility (mole fraction) (in n-propanol, 288.15 K): 0.0207
- solubility (mole fraction) (in n-propanol, 293.15 K): 0.0252
- solubility (mole fraction) (in n-propanol, 298.15 K): 0.0303
- solubility (mole fraction) (in n-propanol, 303.15 K): 0.0362
- solubility (mole fraction) (in n-propanol, 308.15 K): 0.0434
- solubility (mole fraction) (in n-propanol, 313.15 K): 0.052
- solubility (mole fraction) (in n-propanol, 318.15 K): 0.0614
- solubility (mole fraction) (in n-propanol, 323.15 K): 0.0729
- solubility (mole fraction) (in toluene, 283.15 K): 0.00122
- solubility (mole fraction) (in toluene, 288.15 K): 0.00167
- solubility (mole fraction) (in toluene, 293.15 K): 0.0022
- solubility (mole fraction) (in toluene, 298.15 K): 0.00299
- solubility (mole fraction) (in toluene, 303.15 K): 0.00393
- solubility (mole fraction) (in toluene, 308.15 K): 0.00524
- solubility (mole fraction) (in toluene, 313.15 K): 0.00699
- solubility (mole fraction) (in toluene, 318.15 K): 0.00947
- solubility (mole fraction) (in toluene, 323.15 K): 0.0129
